Active and inactive are the calls of the source.
Columns and labels:
[1] = miR-122 activators in hepatoma reporter cells, dose response, cell-based, Huh7 psiCHECK-miR122, Renilla luciferase, cherry-picked (AID 651956); assay type: functional;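 further: huh7 hepatoma cells stably carrying a psiCHECK-2 miR-122 sensor plasmid; renilla luciferase signal reporting endogenous miR-122 activity after 48 h compound exposure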
[2] = target: T1, Sentrin-specific protease 1 (Homo sapiens, UniProt Q9P0U3); assay: potency of human SENP1 inhibitors, dose response, biochemical, kinetic FRET (AID 651697); assay type: functional; conditions: read-out: IC50_Mean
T1 sequence (Q9P0U3 whole entry): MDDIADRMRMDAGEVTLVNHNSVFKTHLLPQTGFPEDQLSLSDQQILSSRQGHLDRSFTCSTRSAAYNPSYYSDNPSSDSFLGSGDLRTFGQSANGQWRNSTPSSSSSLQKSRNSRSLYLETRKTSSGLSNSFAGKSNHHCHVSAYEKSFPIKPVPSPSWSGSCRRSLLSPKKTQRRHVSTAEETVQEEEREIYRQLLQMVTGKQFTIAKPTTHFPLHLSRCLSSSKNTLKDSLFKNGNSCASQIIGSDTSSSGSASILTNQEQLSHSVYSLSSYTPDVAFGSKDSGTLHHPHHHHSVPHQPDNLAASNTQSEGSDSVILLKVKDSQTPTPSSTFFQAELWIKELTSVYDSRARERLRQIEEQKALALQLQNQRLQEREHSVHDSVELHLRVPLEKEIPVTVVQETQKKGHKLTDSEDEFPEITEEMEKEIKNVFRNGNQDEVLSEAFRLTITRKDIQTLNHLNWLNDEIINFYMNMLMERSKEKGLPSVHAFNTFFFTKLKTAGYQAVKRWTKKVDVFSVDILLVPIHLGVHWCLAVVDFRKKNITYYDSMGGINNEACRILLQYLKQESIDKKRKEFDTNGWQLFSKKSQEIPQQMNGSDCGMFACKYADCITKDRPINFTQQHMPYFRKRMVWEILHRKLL

[3] = target: FAD-linked sulfhydryl oxidase ALR (Homo sapiens, UniProt P55789); assay: inhibitors of human ALR sulfhydryl oxidase, dose response, biochemical, H2O2 detection, luminescence, cherry-pick (AID 493248)
Chain of FAD-linked sulfhydryl oxidase ALR (P55789 whole entry, the tested form may be a part): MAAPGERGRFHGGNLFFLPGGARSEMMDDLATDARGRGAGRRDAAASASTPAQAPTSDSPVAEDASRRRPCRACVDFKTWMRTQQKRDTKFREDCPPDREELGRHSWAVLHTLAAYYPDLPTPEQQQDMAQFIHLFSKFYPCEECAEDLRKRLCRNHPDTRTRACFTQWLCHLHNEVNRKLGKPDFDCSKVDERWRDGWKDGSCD

[4] = target: T1, Sentrin-specific protease 1; assay: Dose response confirmation of small molecule inhibitors of the catalytic domain of the SUMO protease, SENP1 in a FRET assay.; assay type: functional; conditions: read-out: IC50_Mean
cells [5] = assay type: functional, cell-based
cells [6] = assay type: functional, cell-based; remark: listed apart in the source
[7] = target: T2, Trace amine-associated receptor 1 (Homo sapiens, UniProt Q96RJ0); assay: Counterscreen for agonists of the human trace amine associated receptor 1 (hTAAR1): Fluorescence-based cell-based high throughput dose response assay to identify hTAAR1 agonist that also desensitize TAAR1 receptor response.; assay type: functional
T2 sequence (Q96RJ0 whole entry): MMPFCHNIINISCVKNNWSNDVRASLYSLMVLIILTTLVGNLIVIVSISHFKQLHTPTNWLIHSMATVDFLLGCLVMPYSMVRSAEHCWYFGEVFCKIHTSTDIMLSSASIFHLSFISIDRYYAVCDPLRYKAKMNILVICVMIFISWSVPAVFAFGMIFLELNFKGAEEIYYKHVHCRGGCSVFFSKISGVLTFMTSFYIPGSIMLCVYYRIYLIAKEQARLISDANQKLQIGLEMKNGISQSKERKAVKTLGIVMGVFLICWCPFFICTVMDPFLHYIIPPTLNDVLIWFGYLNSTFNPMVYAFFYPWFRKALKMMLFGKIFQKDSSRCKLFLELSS

[8] = target: T2, Trace amine-associated receptor 1; assay: Fluorescence-based cell-based high throughput dose response assay to identify agonists of the human trace amine associated receptor 1 (TAAR1).; assay type: functional
[9] = target: T3, Tyrosyl-DNA phosphodiesterase 2 (Homo sapiens, UniProt O95551); assay: human TDP2 enzyme inhibitors, dose response, biochemical, epi absorbance, IC50 (AID 743297)
T3 sequence (O95551 whole entry): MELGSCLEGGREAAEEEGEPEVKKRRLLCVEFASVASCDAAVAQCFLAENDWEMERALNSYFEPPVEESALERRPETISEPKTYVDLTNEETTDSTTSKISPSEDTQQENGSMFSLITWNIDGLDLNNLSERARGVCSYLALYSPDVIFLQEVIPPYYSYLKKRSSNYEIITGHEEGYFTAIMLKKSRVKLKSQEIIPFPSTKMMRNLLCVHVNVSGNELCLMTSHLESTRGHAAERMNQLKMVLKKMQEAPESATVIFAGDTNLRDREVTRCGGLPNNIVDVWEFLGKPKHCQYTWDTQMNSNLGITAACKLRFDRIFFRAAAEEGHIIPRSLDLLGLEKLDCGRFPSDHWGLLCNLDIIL

[10] = intracellular Trypanosoma cruzi inhibitors in host cells – cell-based, plate reader, cherry-pick samples, set 3, dose response (AID 651818); assay type: functional;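 further: compounds incubated with infected cells for about four days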
Paired box protein Pax-8 = Paired box protein Pax-8 (Homo sapiens, UniProt Q06710); assay: inhibitors of PAX8-driven TPO luciferase reporter, dose response, RMG-I cells, cherry-pick (AID 687027); assay type: functional, cell-based;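 further: luciferase reporter driven by Pax8 target thyroperoxidase promoter measured by SteadyGlo luminescence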
Chain of Paired box protein Pax-8 (Q06710 whole entry): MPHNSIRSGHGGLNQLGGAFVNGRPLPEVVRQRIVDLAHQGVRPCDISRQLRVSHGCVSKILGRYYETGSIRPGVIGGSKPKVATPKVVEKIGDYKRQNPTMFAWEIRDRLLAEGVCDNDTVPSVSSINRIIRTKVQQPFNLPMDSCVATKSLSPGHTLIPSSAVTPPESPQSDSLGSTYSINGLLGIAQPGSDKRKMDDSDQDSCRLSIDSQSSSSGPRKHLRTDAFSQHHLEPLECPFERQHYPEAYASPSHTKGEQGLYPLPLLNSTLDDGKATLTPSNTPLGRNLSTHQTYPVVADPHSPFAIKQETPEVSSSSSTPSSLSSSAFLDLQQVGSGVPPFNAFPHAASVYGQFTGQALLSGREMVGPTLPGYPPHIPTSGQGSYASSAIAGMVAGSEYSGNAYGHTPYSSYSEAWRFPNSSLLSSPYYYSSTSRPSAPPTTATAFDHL

[11] = non-specific cell cytotoxicity, dose response, cytotoxicity control for PAX8 inhibitor project, plate reader, dry powder samples (AID 743021); assay type: functional, cell-based
[12] = cytotoxicity in OVCAR8 ovarian cancer cells, dose response, PAX8 project, cell-based, plate reader, dry powder samples (AID 743197); assay type: functional; conditions: OVCAR-8
[13] = NIH:OVCAR-3 ovarian cancer cell cytotoxicity, dose response, PAX8 inhibitor project, plate reader, dry powder samples (AID 743044); assay type: functional, cell-based
[14] = target: T4, RNA-editing ligase 1, mitochondrial (Trypanosoma brucei brucei, UniProt P86926); assay: TbREL1 ligase inhibitors, dose response, biochemical, fluorescence, Trypanosoma brucei (AID 1117295); assay type: functional
T4 sequence (P86926 whole entry): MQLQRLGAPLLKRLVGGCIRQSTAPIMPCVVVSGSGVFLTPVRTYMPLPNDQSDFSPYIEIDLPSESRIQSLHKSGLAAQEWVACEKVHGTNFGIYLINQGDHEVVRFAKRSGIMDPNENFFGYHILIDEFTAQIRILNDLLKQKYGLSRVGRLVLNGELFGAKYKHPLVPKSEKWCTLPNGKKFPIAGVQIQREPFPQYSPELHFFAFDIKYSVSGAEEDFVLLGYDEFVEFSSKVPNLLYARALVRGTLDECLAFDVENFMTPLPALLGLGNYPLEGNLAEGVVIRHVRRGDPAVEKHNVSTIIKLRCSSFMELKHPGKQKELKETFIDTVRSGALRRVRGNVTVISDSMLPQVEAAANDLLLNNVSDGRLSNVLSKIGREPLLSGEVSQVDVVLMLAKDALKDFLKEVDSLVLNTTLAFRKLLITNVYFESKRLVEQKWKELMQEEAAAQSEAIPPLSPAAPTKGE

Kallikrein-7 = Kallikrein-7 (Homo sapiens, UniProt P49862); assay: Fluorescence Intensity-based biochemical primary high throughput dose response assay to identify activators of kallikrein-7 (K7) zymogen.
Chain of Kallikrein-7 (P49862 whole entry): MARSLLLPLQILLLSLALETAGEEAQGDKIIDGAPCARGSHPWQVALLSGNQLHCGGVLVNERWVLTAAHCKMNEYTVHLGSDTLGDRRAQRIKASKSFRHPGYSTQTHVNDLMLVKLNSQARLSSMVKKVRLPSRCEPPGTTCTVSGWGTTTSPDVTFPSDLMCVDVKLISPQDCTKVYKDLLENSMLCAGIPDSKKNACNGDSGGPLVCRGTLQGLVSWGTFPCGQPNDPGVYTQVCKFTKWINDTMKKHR

[15] = target: T5, Long-chain-fatty-acid--AMP ligase FadD28 (Mycobacterium tuberculosis, UniProt P9WQ59); assay: Fluorescence polarization aasay to screen for inhibitors that compete for the binding of FadD28 to a bisubstrate Measured in Biochemical System Using Plate Reader - 2147-01_Inhibitor_Dose_CherryPick_Activity.; assay type: functional, Mycobacterium tuberculosis H37Rv
T5 sequence (P9WQ59 whole entry): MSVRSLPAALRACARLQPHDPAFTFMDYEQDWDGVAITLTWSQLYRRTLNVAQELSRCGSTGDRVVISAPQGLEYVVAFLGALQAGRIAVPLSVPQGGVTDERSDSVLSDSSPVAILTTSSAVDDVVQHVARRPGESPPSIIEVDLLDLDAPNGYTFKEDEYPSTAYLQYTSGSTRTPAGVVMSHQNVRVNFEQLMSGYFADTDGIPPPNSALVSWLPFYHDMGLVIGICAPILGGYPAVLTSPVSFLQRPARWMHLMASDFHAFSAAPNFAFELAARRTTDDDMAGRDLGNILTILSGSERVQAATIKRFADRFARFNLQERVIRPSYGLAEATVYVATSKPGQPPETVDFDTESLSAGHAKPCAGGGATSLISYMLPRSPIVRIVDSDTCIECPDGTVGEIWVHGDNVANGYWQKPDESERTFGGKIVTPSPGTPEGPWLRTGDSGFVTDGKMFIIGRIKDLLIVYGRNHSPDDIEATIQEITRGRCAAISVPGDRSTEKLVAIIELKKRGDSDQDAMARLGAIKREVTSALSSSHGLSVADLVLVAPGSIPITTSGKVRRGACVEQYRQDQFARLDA

[16] = Counterscreen for inhibitors of Trypanosoma brucei methionyl tRNA synthetase (MetRS): Luminescence-based cell-based high throughput dose response assay to identify compounds that are cytotoxic to Jurkat human T lymphocyte cells.; assay type: functional
[17] = target: T6, Methionyl-tRNA synthetase, putative (Trypanosoma brucei brucei, UniProt Q38C91); assay type: functional, Trypanosoma brucei brucei strain 927/4 GUTat10.1;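 further: Read-out by fluorescence polarization, run as a confirmatory high-throughput counterscreen; potency of MetRS inhibitors measured by reduced AMP formation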
T6 sequence (Q38C91 whole entry): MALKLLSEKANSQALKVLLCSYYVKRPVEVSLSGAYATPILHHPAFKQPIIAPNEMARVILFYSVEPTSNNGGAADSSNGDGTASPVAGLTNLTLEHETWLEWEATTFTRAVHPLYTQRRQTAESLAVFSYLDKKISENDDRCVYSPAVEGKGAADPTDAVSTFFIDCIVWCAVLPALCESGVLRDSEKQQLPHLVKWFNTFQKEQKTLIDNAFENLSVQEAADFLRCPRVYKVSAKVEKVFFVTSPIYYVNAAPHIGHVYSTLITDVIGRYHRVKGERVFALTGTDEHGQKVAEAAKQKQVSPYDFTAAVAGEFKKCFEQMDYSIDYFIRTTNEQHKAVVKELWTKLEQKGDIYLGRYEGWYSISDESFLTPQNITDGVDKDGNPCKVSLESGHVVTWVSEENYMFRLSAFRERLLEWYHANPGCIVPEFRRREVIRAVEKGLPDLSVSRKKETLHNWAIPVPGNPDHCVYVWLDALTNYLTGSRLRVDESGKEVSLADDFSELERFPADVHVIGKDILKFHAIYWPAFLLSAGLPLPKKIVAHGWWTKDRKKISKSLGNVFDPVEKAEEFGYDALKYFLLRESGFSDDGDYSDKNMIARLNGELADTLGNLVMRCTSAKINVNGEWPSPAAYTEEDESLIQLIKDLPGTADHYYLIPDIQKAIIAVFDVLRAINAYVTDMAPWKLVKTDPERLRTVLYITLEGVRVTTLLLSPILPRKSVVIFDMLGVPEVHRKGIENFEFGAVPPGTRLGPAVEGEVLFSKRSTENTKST

[18] = target: NAD-dependent protein deacylase sirtuin-5, mitochondrial (Homo sapiens, UniProt Q9NXA8); assay: SIRT5 desuccinylase inhibitors, dose response, biochemical, fluorescence imaging, cherry-pick, set 5 (AID 720591);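 further: desuccinylation of succinyl peptide AMC substrate read as fluorescence after trypsin release; potency of inhibitors that lower fluorescence and may act on trypsin instead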
Chain of NAD-dependent protein deacylase sirtuin-5, mitochondrial (Q9NXA8 whole entry): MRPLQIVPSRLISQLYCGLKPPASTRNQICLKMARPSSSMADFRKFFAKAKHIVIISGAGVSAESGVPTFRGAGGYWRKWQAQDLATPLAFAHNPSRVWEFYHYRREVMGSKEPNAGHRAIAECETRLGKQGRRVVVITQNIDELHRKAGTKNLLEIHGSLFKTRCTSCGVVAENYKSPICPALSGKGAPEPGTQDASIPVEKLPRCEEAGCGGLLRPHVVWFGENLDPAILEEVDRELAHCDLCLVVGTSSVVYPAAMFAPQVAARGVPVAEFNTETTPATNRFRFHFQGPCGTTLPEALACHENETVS

C[C@H]1CN([C@@H](C)CO)C(=O)c2cc(-c3ccc(C#N)cc3)cnc2O[C@H]1CN(C)C(=O)Nc1ccc(C(F)(F)F)cc1
AC50 [1]: 7.44 µM (active)

COc1cc(/C=C2/SC(=S)N(CC(=O)O)C2=O)ccc1OC(=O)c1ccco1
IC50 [2]: 4.75 µM (active)
AC50 [3]: 3.74 µM (active)
IC50 [4]: 5.86 µM (active)

CCCCCn1nnnc1-c1nc2cc3ccccc3cc2nc1O
IC50 [2]: 4.94 µM (active)
IC50 [4]: 1.29 µM (active)

COc1ccc(CCNC(=O)/C=C/C(=O)O)cc1
IC50 (cells [5]): > 29.9 µM (inactive)
EC50 (cells [6]): > 29.9 µM (inactive)
IC50 [7]: > 29.9 µM (inactive)
EC50 [8]: 10.4 µM (inactive)

CCCCn1c(NC(=O)c2ccc(Br)o2)c(C(=O)OCC)c2nc3ccccc3nc21
IC50 [9]: > 128 µM (inactive)

C[C@@H]1CN([C@@H](C)CO)C(=O)Cc2cc(NS(=O)(=O)c3ccccc3)ccc2O[C@@H]1CN(C)S(=O)(=O)c1ccc(Cl)cc1
AC50 [10]: 6.08 µM (active)

C[C@@H]1CN([C@@H](C)CO)C(=O)Cc2cc(NC(=O)CCCCCC(=O)Nc3ccccc3N)ccc2O[C@@H]1CN(C)Cc1ccc(C(F)(F)F)cc1
AC50 (Paired box protein Pax-8): 6.87 µM (active)
AC50 [11]: 45.4 µM (active)
AC50 [12]: 18 µM (active)
AC50 [13]: 30.1 µM (active)

C[C@@H]1CCCCO[C@@H](CN(C)Cc2ccc(Cl)c(Cl)c2)[C@@H](C)CN([C@H](C)CO)C(=O)c2cc(NC(=O)c3ccccc3)ccc2O1
AC50 [10]: 6.25 µM (active)

COC(=O)C1=C(C)N(Cc2ccc(C(F)(F)F)cc2)C(NCC2CC2)=NC1c1ccccc1C(F)(F)F (stereo not drawn)
IC50 [14]: > 96.6 µM (inactive)

CCc1ccc(NC(=O)C[n+]2cc(-c3ccc(C)cc3)n3c2CCC3)cc1
IC50 [14]: > 96.6 µM (inactive)

O=C(Nc1ccc2[nH]c(O)nc2c1)c1c(F)c(F)c(F)c(F)c1F
EC50 (Kallikrein-7): 22.9 µM (inactive)

C[C@H](O)[C@@H]1C(=O)N2CCc3c([nH]c4ccccc34)[C@@H]2C[C@@H]1N(C)C(=O)NC1CCCCC1
EC50 (Kallikrein-7): 8.4 µM (active)

CC/C(=N\CCc1ccccc1)C1=C(O)CCC1=O
IC50 (cells [5]): > 29.9 µM (inactive)
EC50 (cells [6]): > 29.9 µM (inactive)
IC50 [7]: 2.34 µM (active)
EC50 [8]: 0.351 µM (active)

Cc1ccc(NC(=O)CNc2ccccc2N2CCCC2=O)cc1S(=O)(=O)N1CCOCC1
AC50 [15]: 21.8 µM (active)

Cc1c(C)c2c(OCC(=O)N[C@@H](CC(C)C)C(=O)O)cc3c(c2oc1=O)CCC(C)(C)O3
EC50 (Kallikrein-7): > 69.5 µM (inactive)

O=C(CSc1ccc(-c2nc3ccccc3[nH]2)cn1)Nc1ccc(S(=O)(=O)N2CCCC2)cc1
IC50 [16]: 83.3 µM (inactive)
IC50 [17]: 8.73 µM (active)
AC50 [15]: > 100 µM (inactive)

CCC1CN(C(=O)N2CCC(C(=O)Nc3ccccc3F)CC2)c2ccccc2O1 (stereo not drawn)
AC50 [18]: > 30 µM (inactive)

COCCNC(=O)c1cccc(OC2CCN(Cc3ccc(OC(F)F)cc3)CC2)c1
AC50 [18]: > 30 µM (inactive)

C[C@H]1CN([C@@H](C)CO)C(=O)Cc2cc(N(C)C)ccc2O[C@@H]1CN(C)Cc1ccc(C(=O)Nc2ccccc2N)cc1
AC50 [10]: 0.794 µM (active)

c1ccc2c(c1)CC1CNCc3cccc(c31)S2 (stereo not drawn)
IC50 (cells [5]): > 29.9 µM (inactive)
EC50 (cells [6]): > 29.9 µM (inactive)
IC50 [7]: 7.1 µM (active)
EC50 [8]: 5.87 µM (active)

O=C1NNC(=O)C1c1ccccc1
AC50 [18]: > 30 µM (inactive)

From ChEMBL document CHEMBL1201862, “PubChem BioAssay data set” (2004)
